{"source": "ChEMBL document CHEMBL4706552", "about": "“Discovery of 4-methyl-N-(4-((4-methylpiperazin- 1-yl)methyl)-3-(trifluoromethyl)phenyl)-3-((6-(pyridin-3-yl)-1H-pyrazolo[3,4-d]pyrimidin-4-yl)-oxy)benzamide as a potent inhibitor of RET and its gatekeeper mutant” (Eur J Med Chem, 2020)", "key": {"[1]": {"system": "Proto-oncogene tyrosine-protein kinase receptor Ret (Homo sapiens), P07949 [M918T]", "sequence (P07949 whole entry M918T, the tested form may be a part)": "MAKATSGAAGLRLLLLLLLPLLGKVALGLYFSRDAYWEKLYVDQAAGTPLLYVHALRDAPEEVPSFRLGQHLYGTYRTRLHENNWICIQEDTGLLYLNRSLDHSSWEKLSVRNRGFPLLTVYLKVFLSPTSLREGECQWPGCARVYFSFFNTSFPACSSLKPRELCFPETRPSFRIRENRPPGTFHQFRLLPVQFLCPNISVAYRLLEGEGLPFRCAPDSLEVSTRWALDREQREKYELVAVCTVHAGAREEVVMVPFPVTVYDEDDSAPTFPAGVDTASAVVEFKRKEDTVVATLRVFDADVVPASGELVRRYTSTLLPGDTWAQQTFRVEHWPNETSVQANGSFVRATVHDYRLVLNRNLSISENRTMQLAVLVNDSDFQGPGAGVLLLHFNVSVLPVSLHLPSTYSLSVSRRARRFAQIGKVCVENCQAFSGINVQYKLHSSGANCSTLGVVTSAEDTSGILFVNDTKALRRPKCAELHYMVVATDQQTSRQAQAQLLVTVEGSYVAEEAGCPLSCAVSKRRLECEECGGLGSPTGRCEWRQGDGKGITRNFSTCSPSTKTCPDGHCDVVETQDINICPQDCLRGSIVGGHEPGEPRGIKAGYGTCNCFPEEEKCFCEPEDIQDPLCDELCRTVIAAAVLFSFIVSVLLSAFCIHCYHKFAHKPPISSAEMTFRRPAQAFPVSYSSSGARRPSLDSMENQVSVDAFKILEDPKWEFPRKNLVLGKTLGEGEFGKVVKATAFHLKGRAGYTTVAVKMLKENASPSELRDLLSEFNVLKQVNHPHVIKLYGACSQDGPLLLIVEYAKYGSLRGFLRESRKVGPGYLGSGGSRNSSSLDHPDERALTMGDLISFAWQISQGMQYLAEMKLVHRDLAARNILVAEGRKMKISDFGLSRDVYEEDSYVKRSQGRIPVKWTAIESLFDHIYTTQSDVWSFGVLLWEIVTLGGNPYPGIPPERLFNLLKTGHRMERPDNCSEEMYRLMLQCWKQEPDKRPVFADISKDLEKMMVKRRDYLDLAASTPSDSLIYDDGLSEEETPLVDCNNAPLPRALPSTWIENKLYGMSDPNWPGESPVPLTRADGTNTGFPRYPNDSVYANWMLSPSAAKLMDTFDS", "experiment": "Binding affinity to wild-type human partial length RET M918T mutant (E713 to D1014 residues) expressed in bacterial expression system assessed as residual binding level at 1 uM by kinomescan method relative to control"}, "[2]": {"biological_target": "Proto-oncogene tyrosine-protein kinase receptor Ret (Homo sapiens, UniProt P07949)", "sequence (P07949 whole entry)": "as the sequence (P07949 whole entry M918T, the tested form may be a part) above, with T918M counted along it", "experiment": "Inhibition of RET in human LC-2-ad cells assessed as reduction in SHC phosphorylation", "type": "cell-based"}}, "note": "Activity calls are given as the source filed them. The rule behind the calls is not given here.", "data": [{"smiles": "Cc1ccc(C(=O)Nc2ccc(CN3CCN(C)CC3)c(C(F)(F)F)c2)cc1Oc1nc(-c2cccnc2)nc2[nH]ncc12", "values": [{"measurement": "Activity", "setting": "[1]", "value": 0, "unit": "%"}, {"measurement": "inhibition", "setting": "[2]", "value": "Active"}]}]}
